Experimental data reported in ChEMBL document CHEMBL1154795, “Aptamers as a model for functional evaluation of LNA and 2'-amino LNA” (Bioorg Med Chem Lett, 2009).

Experiment: Binding affinity to avidin by surface plasmon resonance assay

| Kd [nM] | SMILES |
| --- | --- |
| 4.2 | COP(=O)(O)O[C@H]1[C@@H](O)[C@H](n2cnc3c(=O)[nH]c(N)nc32)O[C@@H]1COP(=O)(O)O[C@H]1[C@@H](O)[C@H](n2cnc3c(=O)[nH]c(N)nc32)O[C@@H]1COP(=O)(O)O[C@H]1[C@@H](O)[C@H](n2cc(C)c(=O)[nH]c2=O)O[C@@H]1COP(=O)(O)O[C@H]1[C@H]2NC[C@]1(COP(=O)(O)O[C@H]1[C@@H](O)[C@H](n3cnc4c(=O)[nH]c(N)nc43)O[C@@H]1COP(=O)(O)O[C@H]1[C@@H](O)[C@H](n3cnc4c(=O)[nH]c(N)nc43)O[C@@H]1COP(=O)(O)O[C@H]1[C@@H](O)[C@H](n3cnc4c(=O)[nH]c(N)nc43)O[C@@H]1COP(=O)(O)O[C@H]1[C@@H](O)[C@H](n3cnc4c(=O)[nH]c(N)nc43)O[C@@H]1COP(=O)(O)O[C@H]1[C@@H](O)[C@H](n3cc(C)c(=O)[nH]c3=O)O[C@@H]1COP(=O)(O)O[C@H]1[C@@H](O)[C@H](n3ccc(N)nc3=O)O[C@@H]1COP(=O)(O)O[C@H]1[C@@H](O)[C@H](n3ccc(N)nc3=O)O[C@@H]1COP(=O)(O)O[C@H]1[C@@H](O)[C@H](n3cnc4c(N)ncnc43)O[C@@H]1COP(=O)(O)O[C@H]1[C@@H](O)[C@H](n3cnc4c(=O)[nH]c(N)nc43)O[C@@H]1COP(=O)(O)O[C@H]1[C@@H](O)[C@H](n3cnc4c(N)ncnc43)O[C@@H]1COP(=O)(O)O[C@H]1[C@@H](O)[C@H](n3cc(C)c(=O)[nH]c3=O)O[C@@H]1COP(=O)(O)O[C@H]1[C@@H](O)[C@H](n3cnc4c(N)ncnc43)O[C@@H]1COP(=O)(O)O[C@H]1[C@@H](O)[C@H](n3cnc4c(N)ncnc43)O[C@@H]1COP(=O)(O)O[C@H]1[C@@H](O)[C@H](n3cc(C)c(=O)[nH]c3=O)O[C@@H]1COP(=O)(O)O[C@H]1[C@@H](O)[C@H](n3ccc(N)nc3=O)O[C@@H]1COP(=O)(O)O[C@H]1[C@H]3OC[C@]1(COP(=O)(O)O[C@H]1[C@@H](O)[C@H](n4cnc5c(=O)[nH]c(N)nc54)O[C@@H]1CO)O[C@H]3n1cnc3c(=O)[nH]c(N)nc31)O[C@H]2n1cc(C)c(=O)[nH]c1=O |
| 9.78 | Cc1cn([C@@H]2O[C@H](COP(=O)(O)O[C@H]3[C@@H](O)[C@H](n4ccc(N)nc4=O)O[C@@H]3COP(=O)(O)O[C@H]3[C@@H](O)[C@H](n4cnc5c(=O)[nH]c(N)nc54)O[C@@H]3COP(=O)(O)O[C@H]3[C@@H](O)[C@H](n4cnc5c(=O)[nH]c(N)nc54)O[C@@H]3CO)[C@@H](OP(=O)(O)OC[C@H]3O[C@@H](n4cnc5c(N)ncnc54)[C@H](O)[C@@H]3OP(=O)(O)OC[C@H]3O[C@@H](n4cnc5c(N)ncnc54)[C@H](O)[C@@H]3OP(=O)(O)OC[C@H]3O[C@@H](n4cc(C)c(=O)[nH]c4=O)[C@H](O)[C@@H]3OP(=O)(O)OC[C@H]3O[C@@H](n4cnc5c(N)ncnc54)[C@H](O)[C@@H]3OP(=O)(O)OC[C@H]3O[C@@H](n4cnc5c(=O)[nH]c(N)nc54)[C@H](O)[C@@H]3OP(=O)(O)OC[C@H]3O[C@@H](n4cnc5c(N)ncnc54)[C@H](O)[C@@H]3OP(=O)(O)OC[C@H]3O[C@@H](n4ccc(N)nc4=O)[C@H](O)[C@@H]3OP(=O)(O)OC[C@H]3O[C@@H](n4ccc(N)nc4=O)[C@H](O)[C@@H]3OP(=O)(O)OC[C@H]3O[C@@H](n4cc(C)c(=O)[nH]c4=O)[C@H](O)[C@@H]3OP(=O)(O)OC[C@H]3O[C@@H](n4cnc5c(=O)[nH]c(N)nc54)[C@H](O)[C@@H]3OP(=O)(O)OC[C@H]3O[C@@H](n4cnc5c(=O)[nH]c(N)nc54)[C@H](O)[C@@H]3OP(=O)(O)OC[C@H]3O[C@@H](n4cnc5c(=O)[nH]c(N)nc54)[C@H](O)[C@@H]3OP(=O)(O)OC[C@H]3O[C@@H](n4cnc5c(=O)[nH]c(N)nc54)[C@H](O)[C@@H]3OP(=O)(O)OC[C@H]3O[C@@H](n4cc(C)c(=O)[nH]c4=O)[C@H](O)[C@@H]3OP(=O)(O)OC[C@H]3O[C@@H](n4cc(C)c(=O)[nH]c4=O)[C@H](O)[C@@H]3OP(=O)(O)OC[C@H]3O[C@@H](n4cnc5c(=O)[nH]c(N)nc54)[C@H](O)[C@@H]3OP(=O)(O)OC[C@H]3O[C@@H](n4cnc5c(=O)[nH]c(N)nc54)[C@H](O)[C@@H]3OP(=O)(O)O)[C@H]2O)c(=O)[nH]c1=O |
| 4.97 | Cc1cn([C@@H]2O[C@H](COP(=O)(O)O[C@H]3[C@@H](O)[C@H](n4ccc(N)nc4=O)O[C@@H]3COP(=O)(O)O[C@H]3[C@H]4OC[C@]3(COP(=O)(O)O[C@H]3[C@@H](O)[C@H](n5cnc6c(=O)[nH]c(N)nc65)O[C@@H]3CO)O[C@H]4n3cnc4c(=O)[nH]c(N)nc43)[C@@H](OP(=O)(O)OC[C@H]3O[C@@H](n4cnc5c(N)ncnc54)[C@H](O)[C@@H]3OP(=O)(O)OC[C@H]3O[C@@H](n4cnc5c(N)ncnc54)[C@H](O)[C@@H]3OP(=O)(O)OC[C@H]3O[C@@H](n4cc(C)c(=O)[nH]c4=O)[C@H](O)[C@@H]3OP(=O)(O)OC[C@H]3O[C@@H](n4cnc5c(N)ncnc54)[C@H](O)[C@@H]3OP(=O)(O)OC[C@H]3O[C@@H](n4cnc5c(=O)[nH]c(N)nc54)[C@H](O)[C@@H]3OP(=O)(O)OC[C@H]3O[C@@H](n4cnc5c(N)ncnc54)[C@H](O)[C@@H]3OP(=O)(O)OC[C@H]3O[C@@H](n4ccc(N)nc4=O)[C@H](O)[C@@H]3OP(=O)(O)OC[C@H]3O[C@@H](n4ccc(N)nc4=O)[C@H](O)[C@@H]3OP(=O)(O)OC[C@H]3O[C@@H](n4cc(C)c(=O)[nH]c4=O)[C@H](O)[C@@H]3OP(=O)(O)OC[C@H]3O[C@@H](n4cnc5c(=O)[nH]c(N)nc54)[C@H](O)[C@@H]3OP(=O)(O)OC[C@H]3O[C@@H](n4cnc5c(=O)[nH]c(N)nc54)[C@H](O)[C@@H]3OP(=O)(O)OC[C@H]3O[C@@H](n4cnc5c(=O)[nH]c(N)nc54)[C@H](O)[C@@H]3OP(=O)(O)OC[C@H]3O[C@@H](n4cnc5c(=O)[nH]c(N)nc54)[C@H](O)[C@@H]3OP(=O)(O)OC[C@H]3O[C@@H](n4cc(C)c(=O)[nH]c4=O)[C@H](O)[C@@H]3OP(=O)(O)OC[C@@]34CN[C@@H]([C@H](n5cc(C)c(=O)[nH]c5=O)O3)[C@@H]4OP(=O)(O)OC[C@H]3O[C@@H](n4cnc5c(=O)[nH]c(N)nc54)[C@H](O)[C@@H]3OP(=O)(O)OC[C@H]3O[C@@H](n4cnc5c(=O)[nH]c(N)nc54)[C@H](O)[C@@H]3OP(=O)(O)O)[C@H]2O)c(=O)[nH]c1=O |
| 13.1 | Cc1cn([C@@H]2O[C@H](COP(=O)(O)O[C@H]3[C@@H](O)[C@H](n4ccc(N)nc4=O)O[C@@H]3COP(=O)(O)O[C@H]3[C@@H](O)[C@H](n4cnc5c(=O)[nH]c(N)nc54)O[C@@H]3COP(=O)(O)O[C@H]3[C@@H](O)[C@H](n4cnc5c(=O)[nH]c(N)nc54)O[C@@H]3CO)[C@@H](OP(=O)(O)OC[C@H]3O[C@@H](n4cnc5c(N)ncnc54)[C@H](O)[C@@H]3OP(=O)(O)OC[C@H]3O[C@@H](n4cnc5c(N)ncnc54)[C@H](O)[C@@H]3OP(=O)(O)OC[C@H]3O[C@@H](n4cc(C)c(=O)[nH]c4=O)[C@H](O)[C@@H]3OP(=O)(O)OC[C@H]3O[C@@H](n4cnc5c(N)ncnc54)[C@H](O)[C@@H]3OP(=O)(O)OC[C@H]3O[C@@H](n4cnc5c(=O)[nH]c(N)nc54)[C@H](O)[C@@H]3OP(=O)(O)OC[C@H]3O[C@@H](n4cnc5c(N)ncnc54)[C@H](O)[C@@H]3OP(=O)(O)OC[C@H]3O[C@@H](n4ccc(N)nc4=O)[C@H](O)[C@@H]3OP(=O)(O)OC[C@H]3O[C@@H](n4ccc(N)nc4=O)[C@H](O)[C@@H]3OP(=O)(O)OC[C@H]3O[C@@H](n4cc(C)c(=O)[nH]c4=O)[C@H](O)[C@@H]3OP(=O)(O)OC[C@H]3O[C@@H](n4cnc5c(=O)[nH]c(N)nc54)[C@H](O)[C@@H]3OP(=O)(O)OC[C@H]3O[C@@H](n4cnc5c(=O)[nH]c(N)nc54)[C@H](O)[C@@H]3OP(=O)(O)O)[C@H]2O)c(=O)[nH]c1=O |
